# Read-outs that look alike come from different tables or passages of the source.
# Assays:
# Type in all cases: cell-based, rat
# N27 cells [1] = assay: Cytotoxicity (LDH) assay after PFF exposure
# Protocol: (§1) Cytotoxicity Assay. The lactate dehydrogenase (LDH) is a cytosolic enzyme that is released into the media during cellular stress and increased levels of cytotoxicity. The cytotoxicity assay was measured using reagents from the Pierce LDH Cytotoxicity Assay Kit (88954, Thermo). For the assay, 50 μL of media from each well after PFF exposure, followed by SENP-1 treatment, was put into wells of a new 96-well plate. The LDH reagents were prepared according to the protocol provided, and 50 μL of the LDH reagent was mixed into each well. The total 100 μL of media containing LDH and its reagent were incubated at 37° C. for 30 min, followed by the application of a stop solution. The mixture was analyzed using a spectrophotometer (SpectraMax M5e, Molecular devices) at 490 nm with a reference wavelength of 680 nm.
# In this study, numerous commercially available SENP-1 inhibitors were tested for the recovery effects from preformed fibrils of alpha-synuclein (PFF)-induced PD models in vitro. The screening process includes several SENP-1 inhibitors, including specific SENP-1 inhibitors (e.g., SUMO-2 Aldehyde, Momordin lc, streptonigrin, hinokiflavonem, and siRNAs of SENP-1) and nonspecific SENP-1 inhibitors (e.g., oleanolic acid, gallic acid), in N27 dopaminergic cells after the exposure of PFF for 24 hrs.
# N27 cells [2] = assay: ROS level (CellROX deep red) after PFF treatment; settings: compared to PFF only control
# Protocol: (§2) ROS Levels and Thioflavin-T Assessment. The reactive oxygen species (ROS) is a released byproduct during oxidative stress. On the other hand, thioflavin-T is an assay used to understand the level of protein aggregation that can be detrimental to cell survival. In order to assess the level of oxidative stress, all the SENP-1 inhibitors treated cells were incubated in media containing 5 μg/mL of the ROS reagent CellROX deep red reagent (C10422, Thermo Fisher Scientific) and 25 μg/mL of thioflavin-T reagent (CAS: 2390-54-7, Acros Organics) at 37° C. for 30 min. The cells were then washed 3 times with warm phosphate-buffered saline (PBS) without Ca^2+ or Mg^2+ (137 mM NaCl, 2.7 mM KCl, 4.3 mM Na2HPO4, and 1.47 mM KH2PO4), and several images from each well were collected using EVOS FL Cell Imaging Systems (Invitrogen, MA, USA). A minimum of 2 wells were dedicated to each group, and the experiments were repeated 3-4 times independently (total replicated: n=8-10/group). The intensity of red fluorescence corresponding to ROS levels and green labels corresponding to protein aggregation was analyzed by blinded raters using ImageJ.
# N27 dopaminergic cells = assay: Screening of SENP-1 inhibitors (LDH, MTT, ROS, Thioflavin-T) in PFF-induced PD model in vitro; settings: N27 dopaminergic cells after exposure to PFF for 24 hrs
# Description: (§3) Cell Viability Assay. The MTT assay is a colorimetric assay that is based on the conversion of water-soluble MTT (3-(4,5-dimethylthiazol-2-yl)-2,5-diphenyltetrazolium bromide) into formazan crystal by mitochondrial dehydrogenase enzymes, soluble in 100% DMSO. The resulting solution is purple in color, and the color intensity is proportional to the viable cells for each well in a 96-well plate. A variety of SENP-1 inhibitors, such as SUMO-2 aldehyde, Momordin lc, streptonigrin, hinokiflavone, oleanolic acid and siRNA of SENP-1, were treated in N27 cells after PFF (1 μg/ml) exposure for 24 h. After adding 5 mM MTT dye to cells, the color intensity in MTT assays was measured using a spectrophotometer (SpectraMax M5e, Molecular devices, Dover, USA), at 570 nm with a reference wavelength of 630 nm. The cells were incubated with the MTT reagent (ab211091, Abcam) at 37° C. for 3 h, followed by solubilizing the formazan crystals in solution.
# as §1
# as §2, with “A minimum of 2 wells were dedicated to each group, and the experiments were repeated 3-4 times independently (total replicated: n=8-10/group).” left out, “ImageJ. […]” for “ImageJ.”
# N27 cells [3] = assay: Cell viability (MTT) assay after PFF exposure; settings: N27 cells after PFF (1 μg/ml) exposure for 24 h; compared to PFF only control
# Description: as §3
# In this study, numerous commercially available SENP-1 inhibitors were tested for the recovery effects from preformed fibrils of alpha-synuclein (PFF)-induced PD models in vitro. […]
Structure (SMILES),cytotoxicity derived from PFF (LDH assay) (N27 cells [1]),level of ROS (N27 cells [2]),"efficacy in preventing protein aggregation-mediated damage and reversing PFF-induced damage (LDH, MTT, ROS, Thioflavin-T assays) (N27 dopaminergic cells)","cytotoxicity derived from PFF (LDH assay) (N27 cells [1]; N27 cells, PFF treatment, compared to PFF only control)",cell viability from PFF-mediated toxicity (MTT assay) (N27 cells [3])
"O=c1cc(-c2ccc(Oc3c(O)cc4oc(-c5ccc(O)cc5)cc(=O)c4c3O)cc2)oc2cc(O)cc(O)c12 [Hinokiflavone, hinokiflavone]",significantly reduced the cytotoxicity,–,–,–,–
"COC1=C(N)C(=O)c2nc(-c3nc(C(=O)O)c(C)c(-c4ccc(OC)c(OC)c4O)c3N)ccc2C1=O [Streptonigrin, streptonigrin]",–,reduced the level of ROS,clearly efficacious,significantly reduced the cytotoxicity,significantly enhanced the cell viability
O=C(O)c1cc(O)c(O)c(O)c1 [gallic acid],–,–,did not show an efficacy,–,–
CC1(C)CC[C@]2(C(=O)O)CC[C@]3(C)C(=CC[C@@H]4[C@@]5(C)CC[C@H](O)C(C)(C)[C@@H]5CC[C@]43C)[C@@H]2C1 [oleanolic acid],–,–,did not show an efficacy,–,–

# From patent US20260021167A1, “COMPOSITIONS AND METHODS FOR TREATING OR PREVENTING NEURODEGENERATIVE DISEASES” (Delaware State University, priority 2022, published 2026)
